According to ChEMBL document CHEMBL3727361, “Nitrogen bicyclic compounds as inhibitors for Scyl1 and Grk5” (2014):

tested on: Beta-TC6; assay: Increase in insulin release in mouse BetaTC6 cells assessed as relative insulin release activity at 10 uM incubated for 2 to 4 hrs by FRET based HTRF assay relative to sunitinib; format: functional

SMILES	Activity
CN1CCN(C(=O)c2cccc(-c3cnc4cnc(-c5cccc(Cl)c5)cn34)c2)CC1	20%
O=C(NC1CCCC1)c1ccc(-c2cn3c(-c4ccc(CO)cc4)cnc3cn2)cc1	20%
Clc1cccc(-c2nnc3ccc(-c4cccnc4)cn23)c1	50%
CN(C)c1cccc(-c2ccc3ncc(-c4cccs4)n3n2)c1	20%
COc1ccc(-c2cn3c(-c4ccc(OC)nc4)cnc3cn2)cn1	20%
COc1cc(-c2nnc3ccc(-c4ccccc4C)cn23)ccc1O	50%
c1cnc2cc(-c3nnc4ccc(-c5ccoc5)cn34)ccc2n1	50%
NC(=O)c1ccc(-c2cnc3ccc(Cc4ccc(F)c(F)c4)nn23)cc1	20%
COc1ccc(-c2ccc3ncc(-c4cccc(Cl)c4)n3n2)cc1OC	20%
CN1CCN(C(=O)c2cccc(-c3cnc4cnc(-c5ccc6c(ccn6C)c5)cn34)c2)CC1	20%
CN(C)C(=O)c1ccc(-c2cnc3cnc(-c4ccccc4Oc4ccccc4)cn23)cc1	20%
COc1ccc(-c2ccc3nnc(-c4ccoc4)n3c2)cc1	50%
COc1cccc(-c2ccc3ncc(-c4cccc(Cl)c4)n3n2)c1	10%
Cc1cc(-c2cnc3cccnn23)cc(C)c1O	10%
Cc1cccc(-c2cn3c(-c4ccc(CCC(=O)O)cc4)cnc3cn2)c1C	50%
O=C(c1ccc(-c2ccc3nnc(-c4cccc(C(F)(F)F)c4)n3c2)cc1)N1CCOCC1	20%
OCc1cccc(-c2cnc3ccc(-c4cccc(Oc5ccccc5)c4)nn23)c1	20%
COc1cc(OC)cc(-c2cnc3cnc(-c4ccccc4N(C)C)cn23)c1	20%
COc1cccc(-c2ccc3nnc(-c4cscn4)n3c2)c1	50%
Cn1cc(-c2cnc3cnc(-c4cc5ccccc5s4)cn23)cn1	20%
COc1cccc(CC(=O)Nc2cnc3cnc(-c4cnn(C)c4)cn23)c1	10%
COc1cccc(-c2cn3c(NC(=O)Cc4ccsc4)cnc3cn2)c1	20%

SMILES	Activity
COc1ccc(-c2ccc3nnc(-c4ccc(O)c(OC)c4)n3c2)cn1	50%
FC(F)(F)c1cccc(-c2cnc3ccc(C4CC4)nn23)c1	10%
COc1ccccc1CC(=O)Nc1cnc2cnc(-c3cccc(Cl)c3Cl)cn12	20%
Nc1cccc(-c2cnc3ccc(NC4CCOCC4)nn23)c1	20%
O=C(NCCO)c1ccc(-c2cn3c(-c4cccs4)cnc3cn2)cc1	10%
c1cncc(CCNc2ccc3ncc(-c4ccc(N5CCOCC5)cc4)n3n2)c1	50%
OCc1ccc(-c2cn3c(-c4cccs4)cnc3cn2)cc1	20%
Oc1cccc(-c2cnc3ccc(-c4cccc5ncccc45)nn23)c1	10%
C(=C\c1cn2c(-c3cccs3)cnc2cn1)/c1ccccc1	20%
CS(=O)(=O)Nc1cccc(-c2ccc3ncc(-c4ccncc4)n3n2)c1	20%
CN(C)c1ccccc1-c1cn2c(-c3cccs3)cnc2cn1	20%
COc1cc(-c2cn3c(-c4ccc5ncccc5c4)cnc3cn2)cc(OC)c1OC	20%
CN1CCN(C(=O)c2cccc(-c3ccc4nnc(-c5ccc6nccnc6c5)n4c3)c2)CC1	20%
OCc1cccc(-c2cnc3cnc(-c4cccs4)cn23)c1	20%
CSc1ccc(-c2cn3c(-c4cccc(CO)c4)cnc3cn2)cc1	20%
CN1CCN(C(=O)c2cccc(-c3cnc4cnc(-c5ccc(CNc6ccccc6)cc5)cn34)c2)CC1	10%
c1ccc(Oc2ccccc2-c2cn3c(-c4ccncc4)cnc3cn2)cc1	20%
COc1ccc(CNc2ccc3ncc(-c4ccc(O)cc4)n3n2)cc1	20%
c1csc(-c2cn3c(-c4ccc5c(c4)OCO5)cnc3cn2)c1	50%
COc1cc(-c2cnc3cnc(-c4cnn(C)c4)cn23)ccc1O	50%
CN(C)c1cccc(-c2ccc3nnc(-c4cscn4)n3c2)c1	50%
N#Cc1ccc(-c2cnc3cnc(-c4ccccc4)cn23)cc1	20%

SMILES	Activity
Cn1cncc1C#Cc1ccc2nnc(-c3ccc4c(c3)OCO4)n2c1	20%
O=C(Cc1ccsc1)Nc1cnc2cnc(-c3ccccc3F)cn12	10%
Nc1ccc(-c2cn3c(-c4cccs4)cnc3cn2)cn1	20%
Clc1ccc(-c2cnc3cnc(-c4ccsc4)cn23)cc1	50%
CN(C)c1cccc(-c2cnc3cnc(-c4cccs4)cn23)c1	20%
COc1cc(-c2cn3c(-c4ccccc4Cl)cnc3cn2)ccc1O	20%
FC(F)(F)Oc1cccc(-c2cnc3cnc(-c4cccnc4)cn23)c1	20%
FC(F)(F)Oc1ccc(-c2cn3c(-c4cccs4)cnc3cn2)cc1	20%
COc1ccc(-c2ccc3nnc(-c4ccc(OCCCN(C)C)cc4)n3c2)cc1OC	50%
OCc1ccc(-c2cnc3cnc(-c4ccc(Cl)cc4Cl)cn23)cc1	20%
CN(C)c1ccc(-c2cnc3cnc(-c4ccccc4Cl)cn23)cc1	20%
Oc1cccc(-c2cnc3cnc(-c4cc5ccccc5s4)cn23)c1	50%
CNC(=O)c1cccc(-c2ccc3nnc(-c4ccc5c(c4)OCO5)n3c2)c1	20%
NC(=O)c1cccc(-c2ccc3nnc(-c4cscn4)n3c2)c1	20%
CSc1ccccc1-c1cnc2cccnn12	50%
COc1ccc(-c2nnc3ccc(-c4cccs4)cn23)cc1OC	50%
COc1ccc(-c2cnc3ccc(NCc4ccccn4)nn23)cc1OC	20%
CC(=O)c1cccc(-c2cnc3ccc(-c4ccc(N)nc4)nn23)c1	20%
COc1ccc(-c2cnc3cnc(-c4cccc(C(N)=O)c4)cn23)cn1	20%
CN(C)c1ccc(-c2cnc3cnc(-c4ccccc4N(C)C)cn23)cc1	20%
Oc1cccc(-c2cnc3cnc(-c4ccc(Cl)cc4)cn23)c1	20%
COc1cc(-c2cnc3cnc(-c4ccc(N5CCN(C)CC5)nc4)cn23)cc(OC)c1OC	20%

SMILES	Activity
Oc1cccc(-c2cnc3cnc(-c4cccs4)cn23)c1	20%
CN(C)c1ccc(-c2ccc3ncc(-c4ccc(CO)cc4)n3n2)cc1	50%
CN(C)C(=O)c1cccc(-c2ccc3nnc(-c4ccc5nccnc5c4)n3c2)c1	50%
COc1ccc(-c2ccc3nnc(-c4ccncc4)n3c2)cc1OC	20%
c1cc2cc(-c3ccc4nnc(-c5cscn5)n4c3)ccc2[nH]1	50%
O=C(O)CCc1ccc(-c2cnc3cnc(-c4ccccc4Cl)cn23)cc1	50%
c1csc(-c2cn3c(-c4ccncc4)cnc3cn2)c1	20%
CN(C)c1cccc(-c2cnc3cnc(-c4ccc(CO)cc4)cn23)c1	20%
COc1cc(OC)cc(-c2cn3c(-c4cccc(O)c4)cnc3cn2)c1	20%
CC(=O)Nc1ccc(-c2cnc3ccc(-c4ccc(S(C)(=O)=O)cc4)nn23)cc1	10%
CCCC/C=C/c1cn2c(NC(=O)Cc3cccc(OC)c3)cnc2cn1	10%
CC(C)Oc1cccc(-c2cn3c(-c4cccs4)cnc3cn2)c1	20%
COc1ccc(-c2nnc3ccc(-c4cccc(C(=O)N(C)C)c4)cn23)cc1OC	50%
N#Cc1ccc(-c2cnc3cnc(-c4ccc(Cl)cc4)cn23)cc1	50%
CC(C)Oc1cccc(-c2cn3c(-c4ccc5c(c4)OCO5)cnc3cn2)c1	50%
Cc1ccccc1-c1cnc2cnc(-c3cccc(F)c3)cn12	10%
COc1cc(-c2ccc3nnc(-c4ccc5nccnc5c4)n3c2)ccc1O	50%
O=C(NCCO)c1ccc(-c2cnc3cccnn23)cc1	10%
CN1CCN(C(=O)c2cccc(-c3cnc4cnc(-c5ccc(OC(F)(F)F)cc5)cn34)c2)CC1	20%
Cn1ccc2cc(-c3cnc4cnc(-c5cccc(C(=O)NCCO)c5)cn34)ccc21	20%
CN(C)c1ccc(-c2cnc3cnc(-c4ccc(CO)cc4)cn23)cc1	50%
CNc1ccc2ncc(-c3cccc(C(=O)N(C)C)c3)n2n1	20%

SMILES	Activity
CN1CCN(C(=O)c2cccc(-c3cnc4cnc(-c5ccccc5Oc5ccccc5)cn34)c2)CC1	20%
COc1ccc(-c2ccc3nnc(-c4cscn4)n3c2)c(C)c1	50%
COc1cc(CNc2ccc3ncc(-c4ccc(N(C)C)cc4)n3n2)cc(OC)c1OC	10%
Fc1ccc(-c2cnc3cnc(-c4ccco4)cn23)cc1Cl	20%
COc1ccc(CNc2ccc3ncc(-c4ccc5[nH]ccc5c4)n3n2)cc1	20%
NC(=O)c1ccc(-c2ccc3ncc(-c4cccc(OC(F)(F)F)c4)n3n2)cc1	20%
OCc1ccc(-c2cnc3cnc(-c4ccco4)cn23)cc1	20%
Fc1cccc(-c2cnc3cnc(-c4ccc5c(c4)OCO5)cn23)c1	20%
CN(C)C(=O)c1ccc(-c2ccc3nnc(-c4cccc(C(F)(F)F)c4)n3c2)cc1	20%
Oc1cccc(-c2nnc3ccc(-c4ccc(F)cc4)cn23)c1	50%
Cc1cc(-c2cn3c(-c4ccc5ncccc5c4)cnc3cn2)cc(C)c1O	20%
O=C(NC1CC1)c1ccc(-c2cn3c(-c4ccc(O)cc4)cnc3cn2)cc1	20%
CS(=O)(=O)Nc1cccc(-c2ccc3nnc(-c4ccccc4)n3c2)c1	50%
CN(C)c1ccc(-c2cnc3cnc(-c4ccc(C(=O)N5CCOCC5)cc4)cn23)cc1	20%
CN(C)CCCNC(=O)c1ccc(-c2cn3c(-c4ccc(N(C)C)cc4)cnc3cn2)cc1	50%
COc1ccc(-c2nnc3ccc(-c4cccc(N(C)C)c4)cn23)cc1OC	50%
COc1cccc(CC(=O)Nc2cnc3cnc(-c4cccs4)cn23)c1	20%
CS(=O)(=O)c1cccc(-c2ccc3nnc(-c4ccccn4)n3c2)c1	20%
CC(=O)Nc1ccc(-c2ccc3nnc(-c4cccc(Cl)c4)n3c2)cc1	20%
Oc1cccc(-c2ccc3ncc(-c4cccc(C(F)(F)F)c4)n3n2)c1	20%
